Measured values from ChEMBL document CHEMBL1140135 (J Med Chem, 2008).

How the values were obtained:
[1] = target: T1, Bifunctional dihydrofolate reductase-thymidylate synthase (Toxoplasma gondii, UniProt Q07422)
T1 sequence (Q07422 whole entry): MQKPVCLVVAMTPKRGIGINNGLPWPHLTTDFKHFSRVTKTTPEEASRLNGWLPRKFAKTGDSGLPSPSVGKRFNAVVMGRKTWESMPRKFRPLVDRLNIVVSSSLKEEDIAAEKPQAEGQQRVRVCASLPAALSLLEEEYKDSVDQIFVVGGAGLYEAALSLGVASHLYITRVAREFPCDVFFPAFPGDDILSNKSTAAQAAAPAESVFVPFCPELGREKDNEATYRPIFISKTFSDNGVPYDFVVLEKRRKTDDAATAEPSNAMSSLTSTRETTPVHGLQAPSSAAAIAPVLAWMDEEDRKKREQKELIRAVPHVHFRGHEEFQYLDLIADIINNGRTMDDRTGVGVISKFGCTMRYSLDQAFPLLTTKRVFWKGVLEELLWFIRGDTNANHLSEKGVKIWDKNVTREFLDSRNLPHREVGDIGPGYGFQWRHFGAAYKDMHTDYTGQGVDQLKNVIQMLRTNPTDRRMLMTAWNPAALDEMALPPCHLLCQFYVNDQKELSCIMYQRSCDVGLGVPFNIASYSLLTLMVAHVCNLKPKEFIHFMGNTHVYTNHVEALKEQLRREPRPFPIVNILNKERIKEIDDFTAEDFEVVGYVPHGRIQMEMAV
Description: Inhibition of Toxoplasma gondii DHFR

Dihydrofolate reductase = target: T2, Dihydrofolate reductase (Homo sapiens, UniProt P00374)
T2 sequence (P00374 whole entry): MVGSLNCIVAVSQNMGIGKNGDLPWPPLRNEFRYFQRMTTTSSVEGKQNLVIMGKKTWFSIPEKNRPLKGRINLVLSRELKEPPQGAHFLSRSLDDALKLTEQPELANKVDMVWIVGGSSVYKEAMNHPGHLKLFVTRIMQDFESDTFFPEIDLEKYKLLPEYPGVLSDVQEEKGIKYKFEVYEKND
Description: Inhibition of human recombinant DHFR

[2] = target: T1, Bifunctional dihydrofolate reductase-thymidylate synthase; remark: listed apart in the source
Description: Inhibition of Toxoplasma gondii thymidylate synthase

Thymidylate synthase = Thymidylate synthase (Homo sapiens, UniProt P04818)
Sequence of Thymidylate synthase (P04818 whole entry): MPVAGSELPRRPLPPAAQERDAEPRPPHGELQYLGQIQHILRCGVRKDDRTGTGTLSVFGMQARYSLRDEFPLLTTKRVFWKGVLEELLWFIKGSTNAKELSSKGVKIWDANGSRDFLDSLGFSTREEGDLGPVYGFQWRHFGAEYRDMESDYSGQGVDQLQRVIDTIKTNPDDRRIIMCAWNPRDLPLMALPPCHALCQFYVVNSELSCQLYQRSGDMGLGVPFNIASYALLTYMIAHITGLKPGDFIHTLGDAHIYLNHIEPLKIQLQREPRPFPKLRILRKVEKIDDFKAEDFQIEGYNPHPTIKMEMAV
Description: Inhibition of human thymidylate synthase

[3] = target: T3, Dihydrofolate reductase (Escherichia coli) (UniProt P0ABQ4); test: Inhibition of Escherichia coli DHFR at >[…] uM
T3 sequence (whole entry): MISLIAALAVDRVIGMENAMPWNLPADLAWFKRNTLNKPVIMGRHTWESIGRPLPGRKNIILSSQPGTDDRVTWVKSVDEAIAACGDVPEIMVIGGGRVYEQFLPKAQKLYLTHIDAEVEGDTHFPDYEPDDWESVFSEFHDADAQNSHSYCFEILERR

| IC50 (Dihydrofolate reductase) [nM] | Structure (SMILES) | IC50 [1] [nM] | IC50 [2] [nM] | IC50 (Thymidylate synthase) [nM] | inhibition [3] [%] |
| --- | --- | --- | --- | --- | --- |
| 1500 | Cc1sc2nc(N)[nH]c(=O)c2c1Sc1ccc(Cl)cc1 | 31 | 2600 | 260 |  |
|  | Cc1sc2nc(N)[nH]c(=O)c2c1Sc1ccc([N+](=O)[O-])cc1 |  |  | 110 |  |
| 2600 | Cc1sc2nc(N)[nH]c(=O)c2c1Sc1ccc(F)cc1 |  |  | 1100 |  |
| 2200 | Cc1[nH]c2nc(N)[nH]c(=O)c2c1Sc1ccc(C(=O)N[C@@H](CCC(=O)O)C(=O)O)cc1 |  |  |  |  |
|  | Cc1sc2nc(N)[nH]c(=O)c2c1Sc1ccc(Cl)c(Cl)c1 | 28 | 1200 | 110 | 0 |
| 3500 | Cc1sc2nc(N)[nH]c(=O)c2c1Sc1ccccc1 | 120 | 8400 | 1200 |  |

| Structure (SMILES) | IC50 (Dihydrofolate reductase) [nM] | IC50 [1] [nM] | IC50 [2] [nM] | IC50 (Thymidylate synthase) [nM] | inhibition [3] [%] |
| --- | --- | --- | --- | --- | --- |
| Cc1sc2nc(N)[nH]c(=O)c2c1Sc1ccncc1 | 2500 | 34 | 1400 | 280 |  |
| Cc1sc2nc(N)[nH]c(=O)c2c1Sc1ccc2ccccc2c1 | 2900 | 44 | 1200 | 120 |  |
| Cc1sc2nc(N)[nH]c(=O)c2c1Sc1cc(Cl)cc(Cl)c1 | 5600 | 64 | 2300 | 1000 | 0 |
